# Test results taken from publication PMC8001704, “A Review of Red Yeast Rice, a Traditional Fermented Food in Japan and East Asia: Its Characteristic Ingredients and Application in the Maintenance and Improvement of Health in Lipid Metabolism and the Circulatory System” (Molecules, 2021).
# Like-named read-outs stand apart in the source and are kept apart here.
# Experiments:
# [1] = parameters: method as in PMID 16256107, PMID 8930162; details: cited from earlier work
# [2] = system: presynaptic GABA receptors; parameters: method as in PMID 10369462, PMID 11906718; details: through reduction of adrenergic vasoconstriction; cited from earlier work
# [3] = system: peroxisome proliferator-activated receptors (PPARs), e.g., PPARα; parameters: method as in PMID 24275089; details: cited from earlier work
# [4] = parameters: method as in PMID 27422746; details: cited from earlier work
# [5] = parameters: method as in PMID 27014344, doi:10.17546/msd.58298; details: cited from earlier work
# [6] = Pharmacokinetics of monacolin K in plasma after single oral administration of purified monacolin K or red yeast rice; assay type: in vivo, male SD rats; details: for AUC(0-t) / Cmax: male, SD, rat, po
# Excerpt: Recently, we compared the pharmacokinetics of monacolin K in blood after oral administration of purified monacolin K (lactone form, 99% purity) and red yeast rice produced by solid-state fermentation in male SD rats (7 weeks old). Most of the monacolin K in the plasma was detected in its acid form: both in the monacolin K-administered group and the red yeast rice -administered group. […] The medicinal benefit of red yeast rice is considered to be different to that of monacolin K alone. […] Since red yeast rice contains various ingredients, synergistic effects are expected.
# Figure 14 Plasma concentrations of lactone form and acid form of monacolin K after single administration of purified monacolin K or red yeast rice (40 mg/kg monacolin K or dose of red yeast rice equivalent to 40 mg/kg monacolin K) in male SD rats (7 weeks old). Each bar indicates the mean ± standard deviation, quantified according to the reference method.
# [7] = system: Squamous epithelial cancer cells; parameters: method as in PMID 20562912; details: cited from earlier work
# [8] = system: Human umbilical vein endothelial cells (HUVECs); parameters: method as in PMID 16141529; details: cited from earlier work
# Cardiac myocytes = system: Cardiac myocytes; parameters: method as in PMID 11444504; details: cited from earlier work
# cholesterol synthesis = details: cited from earlier work
# [9] = system: Mesenchymal stem cells derived from rat bone marrow; parameters: method as in PMID 17497701; details: cited from earlier work
# [10] = parameters: method as in PMID 23675421, PMID 7830729; details: cited from earlier work
# [11] = system: Patients with hypercholesterolemia; parameters: method as in PMID 9456275; details: cited from earlier work
# experimental animals = system: experimental animals; parameters: method as in PMID 22929438; details: Several studies using experimental animals; cited from earlier work
# Hypertensive model mice = system: Hypertensive model mice; parameters: method as in PMID 10405198; details: cited from earlier work
# [12] = system: Rabbits fed on a high-lipid diet; parameters: method as in PMID 1376794; details: cited from earlier work
# [13] = plasma, single administration, 40 mg/kg monacolin K or equivalent, individual rats 101-103, 201-203, 40 mg/kg
smiles,measurement,setting,value
"NCCCC(=O)O [GABA, γ-amino butyric acid]",increases in blood pressure,[1],suppresses
same,sodium excretion from the kidneys,[1],promotes
same,effect on blood pressure,[2],hypotensive effect
C/C=C/C1=CC2=C(CO1)C(=O)[C@]1(C)OC(=O)[C@H](C(=O)CCCCC)[C@H]1C2 [monascin],"action on PPARs, e.g., PPARα",[3],agonist
same,LDL-cholesterol oxidation,[4],suppressed
C/C=C/C1=CC2=C(CO1)C(=O)[C@]1(C)OC(=O)[C@H](C(=O)CCCCCCC)[C@H]1C2 [ankaflavin],"action on PPARs, e.g., PPARα",[3],agonist
same,LDL-cholesterol oxidation,[4],suppressed
O=C1[C@H](CC[C@H](O)c2ccc(F)cc2)[C@@H](c2ccc(O)cc2)N1c1ccc(F)cc1 [ezetimibe],plasma viscosity,[5],decrease plasma viscosity
"CC[C@H](C)C(=O)O[C@H]1C[C@@H](C)C=C2C=C[C@H](C)[C@H](CC[C@@H]3C[C@@H](O)CC(=O)O3)[C@H]21 [Monacolin K, monacolin K]",form in which most of the monacolin K in the plasma was detected,"[6]; after oral administration, male SD rats",acid form
same,AUC(0-t),"[6]; plasma, 40 mg/kg, plasma, single administration, 40 mg/kg monacolin K or equivalent dose of red yeast rice, male SD rats, mean, read-out: AUC0–4h of monacolin K lactone, Mean",2.48 ng·h/mL
same,Cmax,"[6]; plasma, 40 mg/kg, plasma, single administration, 40 mg/kg monacolin K or equivalent dose of red yeast rice, male SD rats, mean, read-out: Cmax of monacolin K lactone, Mean",2.48 ng/mL
same,AUC(0-t),"[6]; plasma, 40 mg/kg, plasma, single administration, 40 mg/kg monacolin K or equivalent, individual rats 101-103, 201-203, read-out: AUC0–4h of monacolin K lactone, individual animals",3.11 ng·h/mL
same,Cmax,"[6]; plasma, 40 mg/kg, plasma, single administration, 40 mg/kg monacolin K or equivalent, individual rats 101-103, 201-203, read-out: Cmax of monacolin K lactone, individual animals",3.11 ng/mL
same,"AUC0–4h of monacolin K lactone, individual animals",[6]; [13],1.85 ng·h/mL
same,"Cmax of monacolin K lactone, individual animals",[6]; [13],1.85 ng/mL
same,"Effect of Monacolin K, NOS signaling pathway",[7],Induction of expression of Rho family proteins
same,"Effect of Monacolin K, atheroma formation",[8],Inhibition of NF-KB activation by CRP
same,"Effect of Monacolin K, NOS signaling pathway",Cardiac myocytes,Increase of IL-1 induced production of nitrite (Increase in NOS expression and NO production mediated by Rho inhibition)
same,inhibition of cholesterol synthesis,cholesterol synthesis,potent inhibitor of cholesterol synthesis
same,plasma viscosity,[5],decrease plasma viscosity
same,"Effect of Monacolin K, NOS signaling pathway",[9],Activation (phosphorylation) of AI3K/Akt pathway and MEK 1/2 pathway
same,oxidation of LDL,[10],inhibits
same,vascular endothelial function (vasoconstrictor reaction),[10]; in hyperlipidemia,improves
same,"Effect of Monacolin K, atheroma formation",[11],"Inhibition of platelet aggregation, macrophage foam cell formation and LDL oxidation"
same,"Effect of Monacolin K, blood circulation",experimental animals,Increase in cerebral blood flow and cerebral vasomotor response
same,"Effect of Monacolin K, blood circulation",Hypertensive model mice,Increase in renal blood flow
same,"Effect of Monacolin K, atheroma formation",[12],Decrease in number of plaques in the aorta and lung artery
